According to publication PMC6828666, “Discovery of holoenzyme-disrupting chemicals as substrate-selective CK2 inhibitors” (Scientific Reports, 2019):
Where “and” joins values, the source holds several entries; their conditions need not be identical. Equal values may be shown once. Entries after “also recorded” stand apart in the source; their conditions may differ.

Legend:
[1] = target: T1, CK2α2β2 holoenzyme (Homo sapiens, UniProt P68400); assay: CK2 kinase assay with CK2β-dependent peptide substrate (eIF2-derived); type: biochemical; conditions: for IC50: phosphorylation of CK2β-dependent peptide substrate
T1 construct: made in house; host or cells: Escherichia coli (CK2α)
T1 sequence (P68400 whole entry): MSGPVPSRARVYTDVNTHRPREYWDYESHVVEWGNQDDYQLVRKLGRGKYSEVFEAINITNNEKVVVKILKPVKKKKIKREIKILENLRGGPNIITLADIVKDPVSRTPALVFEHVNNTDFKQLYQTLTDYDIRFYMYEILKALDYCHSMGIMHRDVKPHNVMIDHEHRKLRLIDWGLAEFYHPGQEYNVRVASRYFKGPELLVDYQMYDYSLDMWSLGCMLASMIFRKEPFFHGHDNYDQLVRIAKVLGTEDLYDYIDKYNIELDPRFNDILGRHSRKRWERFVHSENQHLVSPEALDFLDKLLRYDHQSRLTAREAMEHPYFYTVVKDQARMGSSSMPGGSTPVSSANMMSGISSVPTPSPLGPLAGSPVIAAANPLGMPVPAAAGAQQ
Protocol: First, all the compounds were dissolved at 200 μM in 50 mM Tris-HCl pH 7.5 buffer containing 0.1 M NaCl and 5% DMSO; the compounds that precipitated under these conditions were discarded. The 32 remaining compounds were diluted at 200 μM in the kinase buffer and centrifuged at 14,000 g. The supernatant was then assayed for ability to inhibit phosphorylation of a CK2β-dependent peptide substrate. For this, a 22-residue long N-terminal fragment of the eukaryotic translation initiation factor 2 (eIF2), known to be exclusively phosphorylated by the CK2α2β2 holoenzyme[4] was used as a substrate. […]
Final concentration of ATP was 100 μM. Assays were performed under linear kinetic conditions for 5 min at room temperature before termination by the addition of 60 μL of 4% TCA. ^32P incorporation in peptide substrate was determined as previously described. […]

[2] = system: MDA-MB231 cells; assay: Apoptosis by annexin V/propidium iodide staining; type: cell-based; conditions: MDA-MB231, 40 μM, AV/PI staining
Protocol: (§1) Cells plated at equal density (2 × 10^4 cells/well) were treated with the indicated inhibitors in cell culture medium containing 0.5 μg/ml Propidium iodide (Sigma-Aldrich). Images of PI-stained red fluorescent cells were captured every 3 h for the duration of the experiment. For apoptosis detection, 50 μL/mL fluorochrome-conjugated Annexin V (Molecular Probes) was added to the medium together with Propidium iodide and apoptotic cell numbers were calculated.
Fig. S12. […] Cell viability was assessed by Annexin V staining (a) or PI staining (b) using the Essen IncuCyte Zoom live-cell microscopy incubator. Images were captured every hour for the duration of the experiment. Error bars represent the SEM of two biological replicates derived from technical triplicates.

[3] = system: MDA-MB231 cells; assay: Cell death by propidium iodide live-cell imaging (IncuCyte); type: cell-based; conditions: for effect of pan-caspase inhibitor Z-VAD on compound-induced cell death: 80 μM compound, 20 μM Z-VAD
Protocol: Figure 5 Cellular effects of compounds 3, 4 and 6. MCF10A cells were incubated for 24 h with either DMSO or 30 μM TAT or 30 μM TAT-Pc or 25 μM 6 (a) or with increasing concentrations of 6 (b) or 3 (c). MCF10A cells were incubated for 48 h with either DMSO or with increasing concentrations of 3 or 6 (d). Cells were then lysed and analyzed by western blot with the indicated antibodies. Blot images are representative of at least three independent experiments. Uncropped blots are shown in Supplementary Fig. S16. (e) MDA-MB231 cells were treated with 40 μM 6 (⚬), 4 (▴) or 3 (X). (f) MDA-MB231 cells were treated for 30 h with increasing concentrations of 6 (⚬) or 4 (▴). Insert: cells were treated for 30 h with 80 μM 6 or 10 μM CX-4945. (g) Cells were incubated with 80 μM 6 or 4 in the absence or presence of 20 μM Z-VAD. […] (h) MDA-MB231 cells (⚬) or MCF10A cells (⦁) were incubated for 24 h with 80 μM 6. Cell death was automatically quantified from images captured every 3 h for the duration of the experiments using an Essen IncuCyte Zoom live-cell microscopy incubator. Error bars represent the SEM of two biological replicates derived from technical triplicates.
Cells grown on 96-well flat-bottomed plates (Corning Falcon) were tracked using an Essen IncuCyte Zoom live-cell microscopy instrument, an automated live cell imager with high-throughput capabilities and built-in data analysis. Experiments were conducted at 37 °C and 5% CO2. The software incorporated into the IncuCyte Zoom was used to analyze the images.
as §1

[4] = system: MDA-MB231 cells; assay: Scratch wound cell migration assay; type: cell-based; conditions: MDA-MB231, 40 μM
Protocol: Cells seeded at equal density were allowed to grow to confluence overnight. The Essen Bioscience WoundMaker^TM, an accessory for the IncuCyte Zoom®, was utilized to create Scratch-wounds of a standardized width (~600 μm). Cells were treated with the indicated inhibitors and imaged every 15 min for 44 h and the percentage of wound confluence was analyzed.
Fig. S10. […] MCF10A cells (a) or MDA-MB231 cells (b) were allowed to grow to confluence overnight. Wounds of a standardized width were created using the Essen Bioscience WoundMakerTM. […] Wound closure was monitored using the Essen IncuCyte Zoom live-cell microscopy incubator. Images were captured every 2 h for the duration of the experiment. Error bars represent the SEM of two biological replicates derived from technical triplicates.

[5] = compound at 50 μM, CK2β-dependent peptide substrate

Row | Compound | inhibition of CK2β-dependent phosphorylation upon addition of Triton X-100 ([1]; 0.01% vol/vol Triton X-100, 50 μM compound) | inhibition at 50 µM [1, 5] [%] | reversibility of inhibition ([1]; dilution of the reaction mixture or gel filtration) | IC50 [1] | induction of apoptosis [2] | cell death ([3]; MDA-MB231, 40 μM) | cell migration / wound closure [4] | effect of pan-caspase inhibitor Z-VAD on compound-induced cell death [3] | time to retraction of membrane extension by the majority of cells ([3]; MDA-MB231, 40 μM) [h] | concentration at which cell death was already detectable ([3]; MDA-MB231, 30 h) [µM] | cell death ([3]; MDA-MB231, 30 h, 80 μM) | exposure time after which apoptosis was detected [2] [h] | sensitivity of MDA-MB231 cells to compound-mediated cell death compared with MCF10A cells ([3]; 80 μM, 24 h) | Inhibition % at 50 μM [1, 5] [%]
1 | COc1[nH]c2ccc(F)cc2c1C(=O)OCC1CCN(CCNS(C)(=O)=O)CC1 [Compound 1] | not affected | 48 | reversed | ~50 µM and 50 µM | – | – | – | – | – | – | – | – | – | –
2 | CS(=O)(=O)NCCN1CCC(COC(=O)c2c[nH]c3ccccc23)CC1 [Compound 3, (1-(2-(Methylsulfonamido)ethyl)piperidin-4-yl)methyl 1H-indole-3-carboxylate] | – | 28 | – | – | unable to induce apoptosis | without effect | not affected | – | – | – | – | – | – | –
3 | O=C(OCC1CCN(CCNS(=O)(=O)c2ccccc2)CC1)c1c[nH]c2ccccc12 [Compound 4, (1-(2-(Phenylsulfonamido)ethyl)piperidin-4-yl)methyl 1H-indole-3-carboxylate] | – | 57 | – | 45 µM | – | – | – | not significantly affected | 9 | 20 | massive | – | – | –
4 | COc1[nH]c2ccc(F)cc2c1C(=O)OCC1CCN(CCNS(=O)(=O)c2ccccc2)CC1.Cl [Compound 6] | – | – | – | – | – | – | completely abrogated | significantly affected; also recorded: significantly attenuated | 9 | 20 | massive | 8 | much more sensitive | 80
